Experimental data from US20080009418A1, “Selective Inhibitors” (Alchemia LTD., priority 2004, published 2008).

Columns and labels:
Human δ-opioid (DOP) = molecular target: T1, Human δ-opioid (DOP) (Homo sapiens, UniProt P41143); assay: Radioligand binding, human δ-opioid (DOP) membranes, FlashPlate, [3H]-Bremazocine; details: compound at 10 μM; for A1: inhibition of radioligand binding: [3H]-Bremazocine; for A1 radioligand binding inhibition: human δ-opioid (DOP) membranes
T1 construct: purchased Perkin Elmer Biosignal
T1 sequence (P41143 whole entry): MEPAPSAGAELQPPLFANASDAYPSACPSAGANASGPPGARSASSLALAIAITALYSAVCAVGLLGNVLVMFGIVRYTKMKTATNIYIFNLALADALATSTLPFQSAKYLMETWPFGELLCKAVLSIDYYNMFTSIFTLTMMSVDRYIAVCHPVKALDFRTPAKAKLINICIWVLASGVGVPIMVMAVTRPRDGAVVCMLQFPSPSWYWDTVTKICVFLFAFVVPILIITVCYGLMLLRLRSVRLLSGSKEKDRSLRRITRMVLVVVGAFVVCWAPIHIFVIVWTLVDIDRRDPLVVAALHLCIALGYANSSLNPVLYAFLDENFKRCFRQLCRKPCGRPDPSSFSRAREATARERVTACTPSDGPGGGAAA
In short: (§1)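 Cloned human receptor membranes were coated onto FlashPlate wells and incubated with radioligand and compound (added from a 0.5 mM DMSO daughter plate) for 1 hour at room temperature in the dark. Scintillation counting gave percent inhibition, with DMSO defining total and reference ligand defining non-specific binding.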

Human κ-Opioid (KOP) = molecular target: T2, Human κ-Opioid (KOP) (Homo sapiens, UniProt P41145); assay: Radioligand binding, human κ-opioid (KOP) membranes, filtration, [3H]-Diprenorphine; details: compound at 10 μM; for A2: inhibition of radioligand binding: [3H]-Diprenorphine; for A2 radioligand binding inhibition: human κ-opioid (KOP) membranes
T2 construct: purchased Perkin Elmer Biosignal
T2 sequence (P41145 whole entry): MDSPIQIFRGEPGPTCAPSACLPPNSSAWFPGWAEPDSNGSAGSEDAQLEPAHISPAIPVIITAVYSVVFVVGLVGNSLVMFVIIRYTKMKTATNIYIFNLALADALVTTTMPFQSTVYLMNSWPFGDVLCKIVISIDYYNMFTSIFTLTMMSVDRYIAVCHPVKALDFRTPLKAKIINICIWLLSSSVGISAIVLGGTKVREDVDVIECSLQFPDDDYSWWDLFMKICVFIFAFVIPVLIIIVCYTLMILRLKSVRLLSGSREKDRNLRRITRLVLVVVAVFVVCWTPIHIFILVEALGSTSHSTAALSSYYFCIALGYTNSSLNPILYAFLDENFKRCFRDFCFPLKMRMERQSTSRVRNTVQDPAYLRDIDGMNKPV
In short: (§2)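 Percent inhibition of radioligand binding measured on recombinant human membranes: NK1 with [125I]-Substance P, KOP with [3H]-Diprenorphine. Incubation 1 h at room temperature, then harvest onto 0.3% PEI-soaked filters, cold Tris-HCl pH 7.4 washes and scintillation counting; non-specific binding from reference ligand wells.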

Human Melanocortin (MC3) = molecular target: T3, Human Melanocortin (MC3) (Homo sapiens, UniProt P41968); assay: Radioligand binding, human melanocortin MC3 membranes, FlashPlate, [125I]-NDP-αMSH; details: compound at 10 μM; for A3: inhibition of radioligand binding: [125I]-NDP-αMSH; for A3 radioligand binding inhibition: human melanocortin MC3 membranes
T3 construct: purchased Perkin Elmer Biosignal
T3 sequence (P41968 whole entry): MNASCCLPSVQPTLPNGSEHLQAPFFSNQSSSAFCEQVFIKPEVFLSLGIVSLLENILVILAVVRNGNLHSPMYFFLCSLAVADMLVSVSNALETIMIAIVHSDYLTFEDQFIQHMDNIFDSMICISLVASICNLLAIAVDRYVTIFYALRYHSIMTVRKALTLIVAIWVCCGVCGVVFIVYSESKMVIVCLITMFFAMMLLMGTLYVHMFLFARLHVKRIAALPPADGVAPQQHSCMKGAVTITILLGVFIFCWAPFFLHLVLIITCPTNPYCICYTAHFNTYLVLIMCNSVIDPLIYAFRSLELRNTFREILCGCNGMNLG
In short: as §1

Human Melanocortin (MC4) = molecular target: T4, Human Melanocortin (MC4) (Homo sapiens, UniProt P32245); assay: Radioligand binding, human melanocortin MC4 membranes, FlashPlate, [125I]-NDP-αMSH; details: compound at 10 μM; for A4: inhibition of radioligand binding: [125I]-NDP-αMSH; for A4 radioligand binding inhibition: human melanocortin MC4 membranes
T4 construct: purchased Perkin Elmer Biosignal
T4 sequence (P32245 whole entry): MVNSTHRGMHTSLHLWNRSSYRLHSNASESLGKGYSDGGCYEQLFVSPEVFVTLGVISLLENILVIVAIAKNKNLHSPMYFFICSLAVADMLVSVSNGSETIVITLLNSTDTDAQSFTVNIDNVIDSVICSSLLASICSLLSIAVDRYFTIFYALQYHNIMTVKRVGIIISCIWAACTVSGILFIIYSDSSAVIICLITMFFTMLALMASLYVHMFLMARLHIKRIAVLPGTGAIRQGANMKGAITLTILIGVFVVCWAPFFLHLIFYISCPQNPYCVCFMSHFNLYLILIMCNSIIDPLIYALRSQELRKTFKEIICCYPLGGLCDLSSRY
In short: as §1

Human melanocortin (MC5) = molecular target: T5, Human melanocortin (MC5) (Homo sapiens, UniProt P33032); assay: Radioligand binding, human melanocortin MC5 membranes, FlashPlate, [125I]-NDP-αMSH; details: compound at 10 μM; for A5: inhibition of radioligand binding: [125I]-NDP-αMSH; for A5 radioligand binding inhibition: human melanocortin MC5 membranes
T5 construct: purchased Perkin Elmer Biosignal
T5 sequence (P33032 whole entry): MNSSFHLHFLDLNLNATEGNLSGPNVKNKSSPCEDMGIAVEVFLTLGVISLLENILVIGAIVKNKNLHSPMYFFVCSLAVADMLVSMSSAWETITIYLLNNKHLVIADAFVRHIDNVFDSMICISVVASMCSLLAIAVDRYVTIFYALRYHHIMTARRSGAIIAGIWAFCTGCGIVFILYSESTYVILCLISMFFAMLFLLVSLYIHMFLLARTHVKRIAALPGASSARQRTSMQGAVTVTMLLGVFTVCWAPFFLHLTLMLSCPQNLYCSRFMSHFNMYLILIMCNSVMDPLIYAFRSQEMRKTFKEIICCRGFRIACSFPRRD
In short: as §1

[1] = molecular target: T6, Human melanin-concentrating hormone (MCH1) (Homo sapiens, UniProt Q99705); assay: Radioligand binding, human melanin-concentrating hormone MCH1 membranes, FlashPlate, [125I]-S36057; details: compound at 10 μM; for A6 radioligand binding inhibition: human MCH1 membranes
T6 construct: purchased Perkin Elmer Biosignal
T6 sequence (Q99705 whole entry): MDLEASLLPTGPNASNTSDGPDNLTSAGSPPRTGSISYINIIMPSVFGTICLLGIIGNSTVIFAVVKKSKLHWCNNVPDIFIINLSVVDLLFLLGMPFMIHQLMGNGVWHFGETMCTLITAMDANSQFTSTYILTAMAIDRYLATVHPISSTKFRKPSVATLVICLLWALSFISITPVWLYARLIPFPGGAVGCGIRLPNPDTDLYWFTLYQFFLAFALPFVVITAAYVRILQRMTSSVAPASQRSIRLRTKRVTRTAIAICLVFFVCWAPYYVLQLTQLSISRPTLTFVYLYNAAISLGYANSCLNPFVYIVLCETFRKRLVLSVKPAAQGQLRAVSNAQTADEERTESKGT
In short: as §1

Human μ-opioid (MOP) = molecular target: T7, Human μ-opioid (MOP) (Homo sapiens, UniProt P35372); assay: Radioligand binding, human μ-opioid (MOP) membranes, FlashPlate, [3H]-Naloxone; details: compound at 10 μM; for A7: inhibition of radioligand binding: [3H]-Naloxone; for A7 radioligand binding inhibition: human μ-opioid (MOP) membranes
T7 construct: purchased Perkin Elmer Biosignal
T7 sequence (P35372 whole entry): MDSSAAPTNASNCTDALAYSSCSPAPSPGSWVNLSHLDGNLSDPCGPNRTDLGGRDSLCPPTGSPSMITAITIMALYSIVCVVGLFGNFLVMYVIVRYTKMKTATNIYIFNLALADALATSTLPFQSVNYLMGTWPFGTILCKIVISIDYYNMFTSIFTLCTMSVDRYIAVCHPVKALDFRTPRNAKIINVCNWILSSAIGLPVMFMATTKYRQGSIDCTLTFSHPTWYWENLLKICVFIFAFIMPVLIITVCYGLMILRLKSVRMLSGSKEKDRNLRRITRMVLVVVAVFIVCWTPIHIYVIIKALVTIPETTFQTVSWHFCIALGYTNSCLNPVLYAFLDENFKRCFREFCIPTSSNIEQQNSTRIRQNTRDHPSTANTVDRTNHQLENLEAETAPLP
In short: as §1

Human neurokinin (NK1) = molecular target: T8, Human neurokinin (NK1) (Homo sapiens, UniProt P25103); assay: Radioligand binding, human neurokinin NK1 membranes, filtration, [125I]-Substance P; details: compound at 10 μM; for A8: inhibition of radioligand binding: [125I]-Substance P; for A8 radioligand binding inhibition: human neurokinin NK1 membranes
T8 construct: purchased Perkin Elmer Biosignal
T8 sequence (P25103 whole entry): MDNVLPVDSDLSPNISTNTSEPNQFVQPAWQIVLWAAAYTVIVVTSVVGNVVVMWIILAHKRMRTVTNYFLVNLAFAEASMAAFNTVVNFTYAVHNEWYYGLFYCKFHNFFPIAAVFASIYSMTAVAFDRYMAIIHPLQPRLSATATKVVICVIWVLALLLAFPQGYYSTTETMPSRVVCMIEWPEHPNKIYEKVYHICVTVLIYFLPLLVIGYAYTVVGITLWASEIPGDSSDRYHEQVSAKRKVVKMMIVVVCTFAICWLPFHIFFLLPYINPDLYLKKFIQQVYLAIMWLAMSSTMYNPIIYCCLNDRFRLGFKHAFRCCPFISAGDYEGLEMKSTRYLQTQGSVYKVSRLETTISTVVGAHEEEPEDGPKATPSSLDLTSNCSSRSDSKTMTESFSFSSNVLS
In short: as §2

[2] = molecular target: T9, Human neuropeptide Y (NPY-Y1) (Homo sapiens, UniProt P25929); assay: Radioligand binding, human neuropeptide Y NPY-Y1 membranes, FlashPlate, [125I]-PYY; details: compound at 10 μM; for A9: inhibition of radioligand binding: [125I]-PYY
T9 construct: purchased Perkin Elmer Biosignal
T9 sequence (P25929 1-384): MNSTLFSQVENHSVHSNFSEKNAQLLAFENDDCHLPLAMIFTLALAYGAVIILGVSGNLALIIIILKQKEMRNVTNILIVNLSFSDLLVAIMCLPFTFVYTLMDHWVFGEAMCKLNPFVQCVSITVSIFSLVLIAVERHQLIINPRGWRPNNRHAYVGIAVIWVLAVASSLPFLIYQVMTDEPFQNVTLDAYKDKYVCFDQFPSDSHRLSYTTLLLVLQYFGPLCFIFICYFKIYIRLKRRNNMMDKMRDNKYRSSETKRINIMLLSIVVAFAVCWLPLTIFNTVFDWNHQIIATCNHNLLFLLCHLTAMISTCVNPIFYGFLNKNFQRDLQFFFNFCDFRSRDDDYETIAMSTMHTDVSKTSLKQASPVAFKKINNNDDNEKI
In short: as §1

Human opioid (ORL1) = molecular target: T10, Human opioid (ORL1) (Homo sapiens, UniProt P41146); assay: Radioligand binding, human opioid ORL1 membranes, FlashPlate, [125I]-Nociceptin; details: compound at 10 μM; for A10: inhibition of radioligand binding: [125I]-Nociceptin
T10 construct: purchased Perkin Elmer Biosignal
T10 sequence (P41146 whole entry): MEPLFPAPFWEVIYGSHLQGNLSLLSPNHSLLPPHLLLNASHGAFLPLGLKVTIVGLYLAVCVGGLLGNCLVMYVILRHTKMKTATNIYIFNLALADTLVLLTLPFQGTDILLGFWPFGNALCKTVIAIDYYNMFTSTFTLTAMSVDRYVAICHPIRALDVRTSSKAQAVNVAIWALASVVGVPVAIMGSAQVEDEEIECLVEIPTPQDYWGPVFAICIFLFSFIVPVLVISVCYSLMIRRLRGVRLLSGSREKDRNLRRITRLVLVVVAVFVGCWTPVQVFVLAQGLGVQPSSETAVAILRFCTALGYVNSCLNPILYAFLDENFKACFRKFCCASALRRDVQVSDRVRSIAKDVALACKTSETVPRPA
In short: as §1

Mouse urotensin (mUR2) = molecular target: T11, Mouse urotensin (mUR2) (Mus musculus, UniProt Q8VIH9); assay: Radioligand binding, mouse urotensin mUR2 membranes, FlashPlate, [125I]-Urotensin II; details: compound at 10 μM; for A11: inhibition of radioligand binding: [125I]-Urotensin II; for A11 radioligand binding inhibition: mouse urotensin mUR2 membranes
T11 construct: purchased Perkin Elmer Biosignal
T11 sequence (Q8VIH9 1-385): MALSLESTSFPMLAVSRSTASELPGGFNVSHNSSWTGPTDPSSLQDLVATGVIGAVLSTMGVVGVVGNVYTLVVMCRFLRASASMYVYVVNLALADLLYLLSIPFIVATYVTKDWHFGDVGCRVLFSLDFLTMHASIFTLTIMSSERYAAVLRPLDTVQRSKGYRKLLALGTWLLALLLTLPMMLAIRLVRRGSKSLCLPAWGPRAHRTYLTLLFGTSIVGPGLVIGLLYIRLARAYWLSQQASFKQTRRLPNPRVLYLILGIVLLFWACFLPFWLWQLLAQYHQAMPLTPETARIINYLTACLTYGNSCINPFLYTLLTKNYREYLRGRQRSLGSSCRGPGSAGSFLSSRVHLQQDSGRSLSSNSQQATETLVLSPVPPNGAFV
In short: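 Cloned mouse urotensin (mUR2) receptor membranes from Perkin Elmer Biosignal were immobilized in FlashPlate microplates using a proprietary coating. Each well got 19.5 μl buffer, then 0.5 μl of DMSO, reference ligand, or compound. Adding 5 μl of [125I]-Urotensin II, diluted to 5× final concentration in binding buffer, started binding. Plates were sealed with TopSeal-A and incubated 1 hour at room temperature in the dark. Wells were counted for 30 seconds each on a TopCount after a 60-second delay, and percentage inhibition was calculated.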

| SMILES | A1: inhibition of radioligand binding (Human δ-opioid (DOP); human DOP membranes) | A2: inhibition of radioligand binding (Human κ-Opioid (KOP); human KOP membranes) | A3: inhibition of radioligand binding (Human Melanocortin (MC3); human MC3 membranes) | A8: inhibition of radioligand binding (Human neurokinin (NK1); human NK1 membranes) | A9: inhibition of radioligand binding ([2]; human NPY-Y1 membranes) | A11: inhibition of radioligand binding (Mouse urotensin (mUR2); mouse mUR2 membranes) | A1 radioligand binding inhibition (Human δ-opioid (DOP)) | A2 radioligand binding inhibition (Human κ-Opioid (KOP)) | A3 radioligand binding inhibition (Human Melanocortin (MC3)) | A4 radioligand binding inhibition (Human Melanocortin (MC4)) | A5 radioligand binding inhibition (Human melanocortin (MC5)) | A6 radioligand binding inhibition [1] | A7 radioligand binding inhibition (Human μ-opioid (MOP)) | A8 radioligand binding inhibition (Human neurokinin (NK1)) | A9 radioligand binding inhibition ([2]; human NPY-Y1 membranes) | A10 radioligand binding inhibition (Human opioid (ORL1); human ORL1 membranes) | A11 radioligand binding inhibition (Mouse urotensin (mUR2)) | further results |
| --- | --- | --- | --- | --- | --- | --- | --- | --- | --- | --- | --- | --- | --- | --- | --- | --- | --- | --- |
| COCC1OC(OCc2ccc3ccccc3c2)C(NC(=O)CCCNC(=N)N)C(OCc2ccc3ccccc3c2)C1O (stereo not shown) [compound 250] | – | – | – | – | – | – | – | – | – | – | – | – | – | – | – | – | – | A1: inhibition of radioligand binding (Human δ-opioid (DOP); FlashPlate): − (“−” indicates less than 50% inhibition at 10 μM); A2: inhibition of radioligand binding (Human κ-Opioid (KOP); filtration): − (“−” indicates less than 50% inhibition at 10 μM); A3: inhibition of radioligand binding (Human Melanocortin (MC3); FlashPlate): − (“−” indicates less than 50% inhibition at 10 μM); A4: inhibition of radioligand binding (Human Melanocortin (MC4); FlashPlate): + (“+” indicates greater than 50% inhibition at 10 μM); A5: inhibition of radioligand binding (Human melanocortin (MC5); FlashPlate): + (“+” indicates greater than 50% inhibition at 10 μM); A6: inhibition of radioligand binding ([1]; [125I]-S36057, FlashPlate): + (“+” indicates greater than 50% inhibition at 10 μM); A7: inhibition of radioligand binding (Human μ-opioid (MOP); FlashPlate): − (“−” indicates less than 50% inhibition at 10 μM); A8: inhibition of radioligand binding (Human neurokinin (NK1); filtration): + (“+” indicates greater than 50% inhibition at 10 μM); A9: inhibition of radioligand binding ([2]; FlashPlate): − (“−” indicates less than 50% inhibition at 10 μM); A10: inhibition of radioligand binding (Human opioid (ORL1); FlashPlate): + (“+” indicates greater than 50% inhibition at 10 μM); A11: inhibition of radioligand binding (Mouse urotensin (mUR2); FlashPlate): − (“−” indicates less than 50% inhibition at 10 μM) |
| NCCCC(=O)NC1C(OCc2ccc3ccccc3c2)OC(COCc2ccccc2)C(O)C1OCc1ccc(Cl)cc1 (stereo not shown) [compound 391] | − (“−” indicates less than 50% inhibition at 10 μM) | − (“−” indicates less than 50% inhibition at 10 μM) | − (“−” indicates less than 50% inhibition at 10 μM) | + (“+” indicates greater than 50% inhibition at 10 μM) | − (“−” indicates less than 50% inhibition at 10 μM) | − (“−” indicates less than 50% inhibition at 10 μM) | – | – | – | – | – | – | – | – | – | – | – | A4: inhibition of radioligand binding (Human Melanocortin (MC4); human MC4 membranes, 10 µM): + (“+” indicates greater than 50% inhibition at 10 μM); A5: inhibition of radioligand binding (Human melanocortin (MC5); human MC5 membranes, 10 µM): − (“−” indicates less than 50% inhibition at 10 μM); A6: inhibition of radioligand binding ([1]; [125I]-S36057, human MCH1 membranes, 10 µM): − (“−” indicates less than 50% inhibition at 10 μM); A7: inhibition of radioligand binding (Human μ-opioid (MOP); human MOP membranes, 10 µM): − (“−” indicates less than 50% inhibition at 10 μM); A10: inhibition of radioligand binding (Human opioid (ORL1); human ORL1 membranes, 10 µM): − (“−” indicates less than 50% inhibition at 10 μM) |
| N=C(N)NCC(=O)NC1C(OCc2ccc(-c3ccccc3)cc2)OC(COCc2ccccc2)C(O)C1OCc1ccc(-c2ccccc2)cc1 (stereo not shown) [compound 406] | − (“−” indicates less than 50% inhibition at 10 μM) | − (“−” indicates less than 50% inhibition at 10 μM) | + (“+” indicates greater than 50% inhibition at 10 μM) | + (“+” indicates greater than 50% inhibition at 10 μM) | − (“−” indicates less than 50% inhibition at 10 μM) | − (“−” indicates less than 50% inhibition at 10 μM) | – | – | – | – | – | – | – | – | – | – | – | A4: inhibition of radioligand binding (Human Melanocortin (MC4); human MC4 membranes): + (“+” indicates greater than 50% inhibition at 10 μM); A5: inhibition of radioligand binding (Human melanocortin (MC5); human MC5 membranes): + (“+” indicates greater than 50% inhibition at 10 μM); A6: inhibition of radioligand binding ([1]; [125I]-S36057, human MCH1 membranes): − (“−” indicates less than 50% inhibition at 10 μM); A7: inhibition of radioligand binding (Human μ-opioid (MOP); human MOP membranes): − (“−” indicates less than 50% inhibition at 10 μM); A10: inhibition of radioligand binding (Human opioid (ORL1); human ORL1 membranes): + (“+” indicates greater than 50% inhibition at 10 μM) |
| COC[C@H]1OC(OCCc2ccccc2)[C@H](NC(=O)CCCNC(=N)N)[C@@H](OCc2ccc(Cl)cc2)[C@@H]1O (stereo partly shown) [compound 50] | – | – | – | – | – | – | − (“−” indicates less than 50% inhibition at 10 μM) | − (“−” indicates less than 50% inhibition at 10 μM) | − (“−” indicates less than 50% inhibition at 10 μM) | − (“−” indicates less than 50% inhibition at 10 μM) | − (“−” indicates less than 50% inhibition at 10 μM) | + (“+” indicates greater than 50% inhibition at 10 μM) | − (“−” indicates less than 50% inhibition at 10 μM) | + (“+” indicates greater than 50% inhibition at 10 μM) | − (“−” indicates less than 50% inhibition at 10 μM) | − (“−” indicates less than 50% inhibition at 10 μM) | − (“−” indicates less than 50% inhibition at 10 μM) | – |
| COC[C@H]1OC(OCc2ccc(-c3ccccc3)cc2)[C@H](NC(=O)CNC(=N)N)[C@@H](OCc2ccc3ccccc3c2)[C@@H]1O (stereo partly shown) [compound 3] | – | – | – | – | – | – | − (“−” indicates less than 50% inhibition at 10 μM) | − (“−” indicates less than 50% inhibition at 10 μM) | − (“−” indicates less than 50% inhibition at 10 μM) | − (“−” indicates less than 50% inhibition at 10 μM) | + (“+” indicates greater than 50% inhibition at 10 μM) | + (“+” indicates greater than 50% inhibition at 10 μM) | − (“−” indicates less than 50% inhibition at 10 μM) | + (“+” indicates greater than 50% inhibition at 10 μM) | − (“−” indicates less than 50% inhibition at 10 μM) | − (“−” indicates less than 50% inhibition at 10 μM) | − (“−” indicates less than 50% inhibition at 10 μM) | – |
